The results in this text go back to patent publication US20240197733A1, “A GABA RECEPTOR MODULATOR FOR USE IN THE TREATMENT OF PAIN” (SANIONA A/S, priority 2021, published 2024).

The subject of experiment [1] is electrocutaneous stimulation-induced facial pain rodent model. The experiment is described as follows: ES-induced facial pain model, cold thermal allodynia (acetone test), acute treatment. In kind it is in vivo, Sprague-Dawley rats. An excerpt:
The electrocutaneous stimulation-induced facial pain rodent model is a reproducible orofacial pain model in which depilated cheek area of rats are repeatedly subjected to electrical stimulation. Repeated electrical stimulation at low intensities produces craniofacial pain that mimics the behavioral characteristics of TN such as development of mechanical and thermal allodynia at cheeks despite no visible edema, swelling or excessive injury and tissue damage.
Male wild type, Sprague-Dawley rats (Charles River Laboratories) born in-house at AfaSci Research Laboratory between May 24, 2020 to May 28, 2020. At approximately 3 months of age (approximately 350 g-450 g body weight) the rats were deemed suitable for the electrocutaneous stimulation-induced facial pain model. Prior to the experiment, the rats were maintained in group cages (3 rats per cage) in a controlled environment (temperature: 21.5±4.5° C./relative humidity: 35-55%) under a standard 12 h light/12 h dark lighting cycle (lights on at 06:00).
The required quantity of the compounds are weighed and dissolved in 100% DMSO in a volume amounting to 5% of the total volume while placed on a stirrer. The weight of the compounds refers to the free base weights. […]
Second baseline measurement was carried out similarly to day 1. […] For each animal, the average of the two baseline nociceptive measurements were calculated within each pain modality (mechanical, heat- and cold pain), and used as baseline (“Baseline” point on figures).
Similarly, to day 1- and 2, all rats were subjected to acclimatization to test equipment and decapicone followed by measurements of ES-induced facial mechanical- heat- and cold allodynia (“0” time point on figures). […] Compound 1, vehicle and Carbamazepine was administered perorally in doses of 1, 3, and 10 mg/kg (Compound 1) or 30 mg/kg (carbamazepine) and drug effects on pain thresholds were evaluated 2- and 4 hours after drug administration by assessment of mechanical- (von Frey) and thermal hypersensitivity (heat- and cold stimulation respectively). […]

Experiment [2] shares this test system. Description: ES-induced facial pain model, mechanical allodynia (Von Frey), prophylactic and acute treatment. Type of experiment: in vivo, Sprague-Dawley rats. How it is done:
Mechanical pain thresholds were assessed by measuring each rat's facial withdrawal threshold (g) in response to von Frey monofilaments (BioSeb). Starting monofilament: 3.84 (0.6 g), 50% facial withdrawal threshold was interpolated using the up-down method (Chaplan S R et al., 1994). Cutoff monofilament was 4.56 (4 g). Unless stated otherwise, the same materials, methods, and provisions of Example 1 were applied to Example 2. The required quantity of the compound is weighed and dissolved in 100% DMSO in a volume amounting to 5% of the total volume while placed on a stirrer. The weight of the compounds refers to the free base weights. Once the solution becomes clear/transparent, the remaining volume of the vehicle is added (30% HPBCD prepared in MQ water) to final concentrations of 0.03, 0.1, and 0.3 mg/ml for Compound 1. The solutions are kept on a stirrer before- and during administration of the compounds to the animals. The experimenter assessing the behavioral responses to drug administration is blinded to the drug treatment to the animals. Each treatment group is coded according the scheme below: • A. Vehicle (5% DMSO+30% HPBCD): 10 ml/kg • B. Compound 1: 0.3 mg/kg • C. Compound 1: 1 mg/kg • D. Compound 1: 3 mg/kg • F. Compound 1: 3 mg/kg—acute Second baseline measurement was carried out similarly to day 1, For each animal, the average of the two baseline nociceptive measurements was calculated within each pain modality (mechanical, heat- and cold pain), and used as baseline (“Baseline” point on figures). Then all rats in the above respective group (A-D) are given treated as mentioned. Group F received vehicle treatment. Treatment is continued once daily to each group same as Day 2 All rats were treated with respective treatment as per day 3-7. After 1 hr of treatment, each rat was subjected to 1 hr of electrocutaneous stimulation at depilated cheek (0.4 mA intensity, 10 ms duration, 1 s inter-pulse interval). Similar to day 1- and 2, all rats were acclimatized to test equipment followed by measurements of ES-induced facial mechanical- heat- and cold allodynia (“0” time point on figures). After measurement of hypersensitivity threshold, rats from group A-D received the vehicle and three doses of Compound 1 as mentioned above while group F received single acute dose of 3 mg/kg of Compound 1. Treatment effects on pain thresholds were evaluated 2- and 4 hours after administration by assessing mechanical- (Von Frey) and thermal (heat and cold) withdrawal threshold.

For `COc1ncc(-c2cccc(-n3cnc4cc(C(C)(C)O)cnc43)c2)c(OC)n1` [Compound 1, 2-(3-(3-(2,4-dimethoxypyrimidin-5-yl)phenyl)-3H-imidazo[4,5-b]pyridin-6-yl)propan-2-ol], the “effect on cold pain threshold (acetone test, facial withdrawal latency) vs vehicle” value in experiment [1] (10 mg/kg po, 2 and 4 hours of treatment, p<0.001 and p<0.0001 vs vehicle) is on record as “significant enhancement of the cold pain threshold”. Besides, the “minimum effective dose, cold allodynia (acetone test)” value in experiment [1] (po, p<0.01 after 2 and 4 hrs of dosing vs vehicle) turned out to be 3 mg/kg. For the same molecule, in experiment [2] (acute 3 mg/kg po), the “effect size on mechanical allodynia, acute treatment compared to prophylactic treated animals” value is “smaller”. The “effect on established mechanical allodynia vs vehicle” value is recorded as “reversed the mechanical allodynia” in experiment [2] (acute 3 mg/kg po on day 9, p<0.01 post 2 hrs, p<0.001 post 4 hrs); “reversed the mechanical allodynia dose dependently” in experiment [2] (prophylactic 0.3 mg/kg po plus additional dose on day 9, p>0.05 post 2 hrs, p<0.01 post 4 hrs); “reversed the mechanical allodynia dose dependently” in experiment [2] (prophylactic 1 mg/kg po plus additional dose on day 9, p<0.01 post 2 hrs, p<0.0001 post 4 hrs); “reversed the mechanical allodynia dose dependently” in experiment [2] (prophylactic 3 mg/kg po plus additional dose on day 9, p<0.0001 post 2 hrs and post 4 hrs). Also, the “development of mechanical allodynia vs vehicle” value in experiment [2] (prophylactic 3 mg/kg po once daily for 7 days, day 9 at 0 time, p<0.001 vs vehicle) was “significantly reduced the development of allodynia”.
